Data published in article PMC7158045 (BMC Plant Biology, 2020).

Tests used:
Assay in all cases: biochemical
ZmDRIK1-R187-P492 = biological target: T1, ZmDRIK1-R187-P492 (Zea mays, UniProt C0P4K9); conditions: read-out: dTm B, DSF, Boltzmann fit, 0.1% DMSO
T1 construct: kinase domain, R187-P492
T1 sequence (C0P4K9 1-514): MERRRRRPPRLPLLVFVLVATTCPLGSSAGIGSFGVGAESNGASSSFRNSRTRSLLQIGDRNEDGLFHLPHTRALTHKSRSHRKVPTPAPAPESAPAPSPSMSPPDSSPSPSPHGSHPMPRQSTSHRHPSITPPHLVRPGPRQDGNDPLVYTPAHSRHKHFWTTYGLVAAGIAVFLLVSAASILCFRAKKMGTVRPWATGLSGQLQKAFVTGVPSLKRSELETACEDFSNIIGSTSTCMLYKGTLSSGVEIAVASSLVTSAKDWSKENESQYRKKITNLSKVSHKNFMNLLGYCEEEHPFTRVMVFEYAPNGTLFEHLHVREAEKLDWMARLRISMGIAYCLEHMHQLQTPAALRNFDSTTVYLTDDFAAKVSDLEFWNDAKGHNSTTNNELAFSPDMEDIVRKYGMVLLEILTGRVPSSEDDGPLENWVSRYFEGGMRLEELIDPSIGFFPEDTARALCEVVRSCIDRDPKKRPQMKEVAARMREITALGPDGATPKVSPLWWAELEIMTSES

ZmDRIK1-K217-S514 = biological target: T2, ZmDRIK1-K217-S514 (Zea mays, UniProt C0P4K9); conditions: read-out: dTm B, sheet ZmDRIK1-K217-S514;; DSF, Boltzmann fit, 0.1% DMSO
T2 construct: kinase domain, K217-S514
T2 sequence (C0P4K9 1-514): T1 sequence (C0P4K9 1-514)

[1] = biological target: T3, ZmDRIK1 (DROUGHT RESPONSIVE INACTIVE KINASE 1), kinase domain (Zea mays, UniProt C0P4K9); conditions: read-out: dTm B, sheet ZmDRIK1-R187-S514;; DSF, Boltzmann fit, 0.1% DMSO
T3 construct: gene ZEAMMB73_Zm00001d028770; ZmDRIK1-KD R187-S514 (kinase domain)
T3 sequence (C0P4K9 187-514): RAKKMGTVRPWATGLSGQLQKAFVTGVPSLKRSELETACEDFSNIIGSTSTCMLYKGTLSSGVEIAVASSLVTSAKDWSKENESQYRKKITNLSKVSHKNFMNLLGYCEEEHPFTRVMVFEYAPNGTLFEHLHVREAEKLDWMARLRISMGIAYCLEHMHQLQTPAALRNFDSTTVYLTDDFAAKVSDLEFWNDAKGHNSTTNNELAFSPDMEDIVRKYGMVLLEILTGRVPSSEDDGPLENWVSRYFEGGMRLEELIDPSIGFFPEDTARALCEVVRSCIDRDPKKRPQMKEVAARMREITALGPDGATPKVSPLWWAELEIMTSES

ZmDRIK1-K217-P492 = biological target: T4, ZmDRIK1-K217-P492 (Zea mays, UniProt C0P4K9); conditions: read-out: dTm B, sheet ZmDRIK1-K217-P492;; DSF, Boltzmann fit, 0.1% DMSO
T4 construct: kinase domain, K217-P492
T4 sequence (C0P4K9 1-514): T1 sequence (C0P4K9 1-514)

| Compound | ΔTm at 10 µM (ZmDRIK1-R187-P492) | ΔTm at 10 µM (ZmDRIK1-K217-S514) | ΔTm at 10 µM [1] | ΔTm at 10 µM (ZmDRIK1-K217-P492) |
| --- | --- | --- | --- | --- |
| O=C(O)c1ccc(-c2c[nH]c3ncc(-c4ccccc4)cc23)cc1C1CCCC1 [GSK650394] | -0.485 °C | -0.353 °C | -0.785 °C | -1.03 °C |
| CNC(=O)c1c(F)cccc1Nc1nc(Nc2cc3c(ccn3C(=O)CN(C)C)cc2OC)nc2[nH]ccc12 [GSK1838705A] | -0.292 °C | -0.398 °C | -0.961 °C | -0.578 °C |
| COc1ncc(-c2ccc3nccc(-c4ccnnc4)c3c2)cc1NS(=O)(=O)c1ccc(F)cc1F [GSK2126458 (GSK458)] | -0.322 °C | -0.505 °C | -0.808 °C | -1.03 °C |
| CNc1nc(-c2ccc3c(N)n[nH]c3c2)cc(N2C[C@@H](C(=O)NC3CCCCC3)CC[C@H]2C)n1 [GSK2334470] | -0.4 °C | -0.431 °C | -0.8 °C | -0.636 °C |
| Cc1ccc(C(=O)Nc2ccc(CN3CCN(C)CC3)c(C(F)(F)F)c2)cc1C#Cc1cnc2[nH]ncc2c1 [GZD824] | -0.305 °C | 0.363 °C | -1.61 °C | -4.57 °C |
| COc1ccc2c(c1)c(C1=C(c3c[nH]c4ccccc34)C(=O)NC1=O)cn2CCCN(C)C [Go 6983] | -0.26 °C | -0.364 °C | -0.633 °C | -1.22 °C |
| CN1CCN(C2CCN(C(=O)Nc3cc(Oc4ccc(NC(=O)C5(C(=O)Nc6ccc(F)cc6)CC5)c(F)c4)ccn3)CC2)CC1 [Golvatinib (E7050)] | -0.232 °C | -0.278 °C | -0.382 °C | -0.473 °C |
| O=S(=O)(NCCNC/C=C/c1ccc(Br)cc1)c1cccc2cnccc12 [H 89 2HCl] | -0.178 °C | -0.188 °C | -0.703 °C | -0.68 °C |
| COc1ccc(S(=O)(=O)N(C(C)=O)c2ccccc2/C=C/c2cc[n+]([O-])cc2)cc1 [HMN-214] | -0.238 °C | -0.242 °C | -0.877 °C | -0.694 °C |
| CCOC(=O)c1cnc2ccc(-c3cncc(NS(=O)(=O)c4ccccc4)c3)cn12 [HS-173] | -0.247 °C | -0.361 °C | -0.566 °C | -0.326 °C |
| CCS(=O)(=O)Nc1ccc2c(c1)/C(=C(/Nc1ccc(CN3CCCCC3)cc1)c1ccccc1)C(=O)N2 [Hesperadin] | -0.086 °C | -0.308 °C | -0.801 °C | 0.108 °C |
| C=CCc1ccc(O)c(-c2ccc(O)c(CC=C)c2)c1 [Honokiol] | -0.457 °C | -0.593 °C | -0.751 °C | -1.49 °C |
| O=C(c1ccc(Nc2nccc(-c3cc4ccccc4s3)n2)cc1)N1CCC(N2CCCC2)CC1 [IKK-16 (IKK Inhibitor VII)] | 0.0892 °C | 0.121 °C | -0.0967 °C | -0.786 °C |
| O=C(Nc1cc(C(F)(F)F)cc(C(F)(F)F)c1)c1cc(Cl)ccc1O [IMD 0354] | 0.639 °C | 1.2 °C | -0.239 °C | 0.526 °C |
| CC(C)n1nc(-c2ccc3oc(N)nc3c2)c2c(N)ncnc21 [INK 128 (MLN0128)] | -0.315 °C | -0.433 °C | -0.628 °C | -0.659 °C |
| Oc1ccc2ccccc2c1SSc1c(O)ccc2ccccc12 [IPA-3] | -15.4 °C | -15 °C | -20.6 °C | -15.1 °C |
| C[C@H](Nc1ncnc2nc[nH]c12)c1cc2cccc(Cl)c2c(=O)n1-c1ccccc1 [IPI-145 (INK1197)] | -0.495 °C | -0.374 °C | -1.16 °C | -0.86 °C |
| C=CC(=O)N1CCC[C@@H](n2nc(-c3ccc(Oc4ccccc4)cc3)c3c(N)ncnc32)C1 [Ibrutinib (PCI-32765)] | -0.476 °C | -0.359 °C | -0.597 °C | -1.14 °C |
| O=C1Nc2ccccc2/C1=C1/Nc2ccccc2C1=O [Indirubin] | -0.337 °C | -0.386 °C | -0.784 °C | -1.26 °C |
| Nc1nc(Nc2ccc(S(N)(=O)=O)cc2)nn1C(=O)c1c(F)cccc1F [JNJ-7706621] | -0.0807 °C | -0.319 °C | -0.794 °C | -0.924 °C |
| Cn1cc(-c2ccc3nnc(C(F)(F)c4ccc5ncccc5c4)n3n2)cn1 [JNJ-38877605] | -0.343 °C | -0.499 °C | -0.758 °C | -1 °C |
| N#Cc1c(NC(=O)c2cccc3ccccc23)sc2c1CCCC2 [JNK Inhibitor IX] | -0.365 °C | -0.601 °C | -1.05 °C | -1.09 °C |
| Cc1cc(NC(=O)c2cccc(NC(=O)/C=C/CN(C)C)c2)ccc1Nc1nccc(-c2cccnc2)n1 [JNK-IN-8] | -0.326 °C | -0.306 °C | -0.726 °C | -1.16 °C |
| CN([C@@H](Cc1ccc(OS(=O)(=O)c2cccc3cnccc23)cc1)C(=O)N1CCN(c2ccccc2)CC1)S(=O)(=O)c1cccc2cnccc12 [KN-62] | -1.15 °C | -0.945 °C | -1.39 °C | -1.79 °C |
| CCCNC(=O)Nc1ccc(Oc2ncnc3cc(OC)c(OC)cc23)cc1Cl [KRN 633] | -0.332 °C | -0.102 °C | -1.02 °C | -0.52 °C |
| C[C@@H]1CN(CC(=O)Nc2ccc3c(c2)Cc2cccc(-c4cc(=O)cc(N5CCOCC5)o4)c2S3)C[C@H](C)O1 [KU-60019] | -0.366 °C | -0.426 °C | -1.17 °C | -1.19 °C |

Now from value to compound:

| ΔTm at 10 µM (ZmDRIK1-R187-P492) | ΔTm at 10 µM (ZmDRIK1-K217-S514) | ΔTm at 10 µM [1] | ΔTm at 10 µM (ZmDRIK1-K217-P492) | Compound |
| --- | --- | --- | --- | --- |
| -0.153 °C | -0.204 °C | -0.678 °C | -1.08 °C | CCn1c(-c2nonc2N)nc2c(C#CC(C)(C)O)ncc(OC[C@H]3CCCNC3)c21 [GSK690693] |
| -0.283 °C | -0.279 °C | -0.862 °C | -0.796 °C | O=C1NC(=O)/C(=C/c2ccc3nccc(-c4ccncc4)c3c2)S1 [GSK1059615] |
| -0.37 °C | -0.699 °C | -0.589 °C | -0.98 °C | Cc1c(Cn2c(C)nc3c(C(=O)O)cc(N4CCOCC4)cc32)cccc1C(F)(F)F [GSK2636771] |
| -0.306 °C | 0.341 °C | -0.178 °C | -0.0461 °C | O=C1Nc2ccc(I)cc2/C1=C/c1cc(Br)c(O)c(Br)c1 [GW5074] |
| 0.197 °C | 0.102 °C | -0.782 °C | -0.972 °C | Cc1cc(Nc2ncnc3ccc(-c4ccc(CNCCS(C)(=O)=O)o4)cc23)ccc1Oc1ccn2ncnc2c1 [HER2-Inhibitor-1] |
| -0.527 °C | -0.628 °C | -0.881 °C | -1.43 °C | Cc1[nH]c2ccccc2c1C1=C(NCCc2ccc(F)cc2)C(=O)N(C)C1=O [IM-12] |
| -0.388 °C | -0.34 °C | -0.618 °C | -1.1 °C | C#Cc1cccc(Nc2ncnc3cc4c(cc23)OCCOCCOCCO4)c1 [Icotinib] |
| -0.298 °C | -0.321 °C | -0.658 °C | -0.935 °C | C=CC(=O)N1CCN(c2nc(=O)n(-c3c(C)ccnc3C(C)C)c3nc(-c4c(O)cccc4F)c(F)cc23)[C@@H](C)C1 [K-Ras(G12C) inhibitor 9] |
| -1.06 °C | -0.811 °C | -0.375 °C | -4.4 °C | COc1ccc(S(=O)(=O)N(CCO)c2ccccc2CN(C)C/C=C/c2ccc(Cl)cc2)cc1 [KN-93 Phosphate] |
| -0.282 °C | -0.342 °C | -0.601 °C | -1.32 °C | O=c1cc(-c2cccc3c2Sc2ccccc2S3)oc(N2CCOCC2)c1 [KU-55933 (ATM Kinase Inhibitor)] |
| -0.299 °C | -0.302 °C | -0.516 °C | -1.21 °C | COc1ccc(-c2ccc3c(N4CCOCC4)nc(N4C[C@@H](C)O[C@@H](C)C4)nc3n2)cc1CO [KU-0063794] |
